Reference: article PMC4999073 (PLoS ONE, 2016)
Blank lines part the entries; values can stand above or below the compound they belong to. Where a SMILES comes first, the peptide text is derived from it.

Key:
[1] = test system: Human neutrophil elastase (HNE); experiment: 125 nM HNE in 0.05 M HEPES buffer, pH 7.4, NP40 0.05% 150 mM NaCl; conditions: 30°C, up to 4 h
Cat H = experiment: 125 nM Cat H in 0.1 M sodium acetate buffer, pH 5.5 containing 2 mM DTT and 0.01% Brij35; conditions: human, 30°C, up to 4 h
Cat D = experiment: 125 nM Cat D in 0.1 M sodium citrate buffer, pH 3.5, 200 mM NaCl; conditions: human, 30°C, up to 4 h
trypsin [2] = experiment: 125 nM trypsin in 0.1 M Tris/HCl buffer, pH 8.0, 50 mM CaCl2, 100 mM NaCl; conditions: 30°C, up to 4 h
chymotrypsin [3] = experiment: 125 nM chymotrypsin in 0.1 M Tris/HCl buffer, pH 7.8, 20 mM CaCl2; conditions: 30°C, up to 4 h
Cat B = experiment: 125 nM Cat B in 0.1 M sodium acetate buffer, pH 5.5 containing 2 mM DTT and 0.01% Brij35; conditions: human, 30°C, up to 4 h
Cat K = experiment: 125 nM Cat K in 0.1 M sodium acetate buffer, pH 5.5 containing 2 mM DTT and 0.01% Brij35; conditions: human, 30°C, up to 4 h
Cat S = experiment: 125 nM Cat S in 0.1 M sodium acetate buffer, pH 5.5 containing 2 mM DTT and 0.01% Brij35; conditions: human, 30°C, up to 4 h
Cat L = experiment: 125 nM Cat L in 0.1 M sodium acetate buffer, pH 5.5 containing 2 mM DTT and 0.01% Brij35; conditions: human, 30°C, up to 4 h
trypsin [4] = conditions: 12.5 μM defensin, 125 nM trypsin (S:E 100), 0.1 M Tris/HCl pH 8.0, 50 mM CaCl2, 100 mM NaCl, 4 h, 30°C; RP-HPLC, 220 nm
Experimental: (§4) Chromatograms were analyzed by running the ChromoQuest Chromatography Workstation (Thermo Fisher Scientific, Les Ulis, France).

Human Cat L = Human Cat L (Homo sapiens, UniProt P07711); conditions: 12.5 μM defensin, 125 nM Cat L (S:E 100), 0.1 M sodium acetate pH 5.5, 2 mM DTT, 0.01% Brij35, 4 h, 30°C; RP-HPLC, 220 nm
Sequence of Human Cat L (P07711 114-333): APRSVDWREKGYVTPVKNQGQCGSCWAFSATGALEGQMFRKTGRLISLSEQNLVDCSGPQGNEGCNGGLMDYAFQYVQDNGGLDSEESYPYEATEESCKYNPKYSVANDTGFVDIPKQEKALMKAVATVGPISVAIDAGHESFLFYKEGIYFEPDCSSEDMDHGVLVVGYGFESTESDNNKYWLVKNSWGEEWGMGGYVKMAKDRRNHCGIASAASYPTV

Human Cat S = Human Cat S (Homo sapiens, UniProt P25774); conditions: 12.5 μM defensin, 125 nM Cat S (S:E 100), 0.1 M sodium acetate pH 5.5, 2 mM DTT, 0.01% Brij35, 4 h, 30°C; RP-HPLC, 220 nm
Sequence of Human Cat S (P25774 115-331): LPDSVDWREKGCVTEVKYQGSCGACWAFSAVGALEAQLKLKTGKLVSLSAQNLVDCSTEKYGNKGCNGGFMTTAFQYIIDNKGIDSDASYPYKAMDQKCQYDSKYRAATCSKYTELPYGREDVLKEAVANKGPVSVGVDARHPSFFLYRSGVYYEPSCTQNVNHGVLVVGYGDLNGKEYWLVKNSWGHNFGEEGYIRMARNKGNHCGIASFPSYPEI

Human Cat B = Human Cat B (Homo sapiens, UniProt P07858); conditions: 12.5 μM defensin, 125 nM Cat B (S:E 100), 0.1 M sodium acetate pH 5.5, 2 mM DTT, 0.01% Brij35, 4 h, 30°C; RP-HPLC, 220 nm
[5] = test system: Escherichia coli ATCC 25922; conditions: radial diffusion assay, n = 3
From the text: (§1) The reaction mixture without defensin added was used as negative control and the defensin alone was used as positive control. […] The strain Salmonella enterica serovar Typhimurium LT2 was kindly provided by Dr Benoît Doublet (INRA, UMR1282 ISP, Nouzilly, France). The strain Streptococcus salivarius was a clinical strain isolated from blood culture, kindly provided by Dr Christine Delorme (INRA, UMR1319 MICALIS, Jouy en Josas, France).
(§2) A Mann-Whitney non-parametric U test was used to compare the minimal inhibitory concentration of each defensin before and after incubation with cathepsins.

[6] = test system: Staphylococcus aureus ATCC 29740; conditions: radial diffusion assay; defensin alone or reaction mixture after 4 h at 30°C with cathepsin (S:E molar ratio 100), 0.1 M sodium acetate pH 5.5, 2 mM DTT, 0.01% Brij35; mean ± SEM, n = 3; NI: no inhibition detected
From the text: as §1, §2

Human Cat K = Human Cat K (Homo sapiens, UniProt P43235); conditions: 12.5 μM defensin, 125 nM Cat K (S:E 100), 0.1 M sodium acetate pH 5.5, 2 mM DTT, 0.01% Brij35, 4 h, 30°C; RP-HPLC, 220 nm
Sequence of Human Cat K (P43235 115-329): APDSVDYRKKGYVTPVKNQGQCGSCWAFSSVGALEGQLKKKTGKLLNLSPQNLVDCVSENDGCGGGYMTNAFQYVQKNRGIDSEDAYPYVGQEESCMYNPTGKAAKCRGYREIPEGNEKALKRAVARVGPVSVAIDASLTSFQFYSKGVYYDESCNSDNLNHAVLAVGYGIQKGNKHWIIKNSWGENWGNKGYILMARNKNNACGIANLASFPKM

Human Cat H = Human Cat H (Homo sapiens, UniProt P09668); conditions: 12.5 μM defensin, 125 nM Cat H (S:E 100), 0.1 M sodium acetate pH 5.5, 2 mM DTT, 0.01% Brij35, 4 h, 30°C; RP-HPLC, 220 nm
Sequence of Human Cat H (P09668 98-335): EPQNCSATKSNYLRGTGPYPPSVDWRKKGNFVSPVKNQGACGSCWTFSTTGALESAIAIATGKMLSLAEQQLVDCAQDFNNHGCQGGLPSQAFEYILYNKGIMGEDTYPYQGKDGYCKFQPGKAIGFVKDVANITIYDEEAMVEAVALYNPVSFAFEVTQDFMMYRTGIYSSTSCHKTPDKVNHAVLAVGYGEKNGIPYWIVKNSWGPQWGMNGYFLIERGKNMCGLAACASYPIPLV

chymotrypsin [7] = conditions: 12.5 μM defensin, 125 nM chymotrypsin (S:E 100), 0.1 M Tris/HCl pH 7.8, 20 mM CaCl2, 4 h, 30°C; RP-HPLC, 220 nm
Experimental: as §4

Human Cat D = Human Cat D (Homo sapiens, UniProt P07339); conditions: 12.5 μM defensin, 125 nM Cat D (S:E 100), 0.1 M sodium citrate pH 3.5, 200 mM NaCl, 4 h, 30°C; RP-HPLC, 220 nm
Sequence of Human Cat D (P07339 65-412): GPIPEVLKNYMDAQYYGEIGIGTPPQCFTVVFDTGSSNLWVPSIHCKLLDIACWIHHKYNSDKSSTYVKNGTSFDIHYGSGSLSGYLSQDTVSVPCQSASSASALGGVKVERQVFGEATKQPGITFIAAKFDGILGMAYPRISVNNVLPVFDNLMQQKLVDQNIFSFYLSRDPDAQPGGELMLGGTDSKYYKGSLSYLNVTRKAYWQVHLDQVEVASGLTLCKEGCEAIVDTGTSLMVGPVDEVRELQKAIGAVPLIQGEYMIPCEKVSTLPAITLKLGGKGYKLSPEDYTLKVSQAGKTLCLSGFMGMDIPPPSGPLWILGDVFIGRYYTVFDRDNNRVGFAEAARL
Experimental: as §4

[8] = target: Human neutrophil elastase (HNE) (Homo sapiens, UniProt P08246); conditions: 12.5 μM defensin, 125 nM HNE (S:E 100), 0.05 M HEPES pH 7.4, NP40 0.05%, 150 mM NaCl, 4 h, 30°C; RP-HPLC, 220 nm
Sequence of Human neutrophil elastase (HNE) (Homo sapiens, UniProt P08246) (P08246 30-267): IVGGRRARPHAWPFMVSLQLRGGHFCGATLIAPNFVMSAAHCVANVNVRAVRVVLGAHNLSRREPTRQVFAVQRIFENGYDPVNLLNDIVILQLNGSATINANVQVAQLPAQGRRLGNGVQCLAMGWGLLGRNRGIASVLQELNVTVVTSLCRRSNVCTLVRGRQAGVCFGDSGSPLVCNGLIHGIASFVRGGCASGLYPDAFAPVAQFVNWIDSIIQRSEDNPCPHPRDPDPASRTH
Experimental: as §4

[9] = test system: Salmonella enterica serovar Typhimurium LT2 ATCC 700720; experiment: Radial diffusion antibacterial assay (MIC); format: cell-based; conditions: Table 3, mean +/- SEM, n = 3
Experimental: (§3) The antibacterial activity of purified AvBD2 and AvBD7 and of each enzyme-AvBD reaction mixture was measured by radial diffusion assay as described previously, allowing the determination of the minimal inhibitory concentration (MIC) against Staphylococcus aureus ATCC 29740 and against Escherichia coli ATCC 25922 as representative Gram-positive and Gram-negative strains, respectively. The reaction mixture without defensin added was used as negative control and the defensin alone was used as positive control. For AvBD7 and its major degradation product, MIC was determined towards three Gram-negative and three Gram-positive bacterial strains, respectively, including Pseudomonas aeruginosa ATCC 25010, Escherichia coli ATCC 25922, Salmonella enterica serovar Typhimurium LT2 ATCC 700720, Listeria monocytogenes strain EGD, Staphylococcus aureus ATCC 29740, and Streptococcus salivarius JIM 8780. The strain Salmonella enterica serovar Typhimurium LT2 was kindly provided by Dr Benoît Doublet (INRA, UMR1282 ISP, Nouzilly, France). The strain Streptococcus salivarius was a clinical strain isolated from blood culture, kindly provided by Dr Christine Delorme (INRA, UMR1319 MICALIS, Jouy en Josas, France).

[10] = test system: Streptococcus salivarius JIM 8780; experiment: Radial diffusion antibacterial assay (MIC); format: cell-based; conditions: Table 3, mean +/- SEM, n = 3
Experimental: as §3

[11] = test system: Listeria monocytogenes strain EGD; experiment: Radial diffusion antibacterial assay (MIC); format: cell-based; conditions: Table 3, mean +/- SEM, n = 3
Experimental: as §3

[12] = test system: Pseudomonas aeruginosa ATCC 25010; experiment: Radial diffusion antibacterial assay (MIC); format: cell-based; conditions: Table 3, mean +/- SEM, n = 3
Experimental: as §3

- not cleaved [1]: did not cleave (4 hours)
- not cleaved (Cat H): resistant to hydrolysis (4 h)
- not cleaved (Cat D): did not cleave (4 hours)
- not cleaved (trypsin [2]): did not cleave (4 hours)
- not cleaved (chymotrypsin [3]): did not cleave (4 hours)
Compound: LFCKGGSCHFGGCPSHLIKVGSCFGFRSCCKWPWNA

- not cleaved [1]: did not cleave (4 hours)
- not cleaved (Cat H): resistant to hydrolysis (4 h)
- not cleaved (Cat D): did not cleave (4 hours)
- not cleaved (trypsin [2]): did not cleave (4 hours)
- not cleaved (Cat B): fully resistant to hydrolysis (4 h)
- not cleaved (chymotrypsin [3]): did not cleave (4 hours)
- cleaved bond (Cat K): Phe3-Ile4
- not cleaved (Cat S): fully resistant to hydrolysis (4 h)
- not cleaved (Cat L): fully resistant to hydrolysis (4 h)
Compound: QPFIPRPIDTCRLRNGICFPGICRRPYYWIGTCNNGIGSCCARGWRS

Compound: CC[C@H](C)[C@@H]1NC(=O)[C@H](CC(C)C)NC(=O)[C@H](Cc2c[nH]cn2)NC(=O)[C@H](CO)NC(=O)[C@@H]2CCCN2C(=O)[C@@H]2CSSC[C@@H](C(=O)N[C@@H](CCCCN)C(=O)N[C@@H](Cc3c[nH]c4ccccc34)C(=O)N3CCC[C@H]3C(=O)N[C@@H](Cc3c[nH]c4ccccc34)C(=O)N[C@@H](CC(N)=O)C(=O)N[C@@H](C)C(=O)O)NC(=O)[C@@H]3CSSC[C@H](NC(=O)[C@H](Cc4ccccc4)NC(=O)[C@@H](N)CC(C)C)C(=O)N[C@@H](CCCCN)C(=O)NCC(=O)NCC(=O)N[C@@H](CO)C(=O)N[C@@H](CSSC[C@H](NC(=O)[C@H](CO)NC(=O)CNC(=O)[C@H](C(C)C)NC(=O)[C@H](CCCCN)NC1=O)C(=O)N[C@@H](Cc1ccccc1)C(=O)NCC(=O)N[C@@H](Cc1ccccc1)C(=O)N[C@@H](CCCNC(=N)N)C(=O)N[C@@H](CO)C(=O)N3)C(=O)N[C@@H](Cc1c[nH]cn1)C(=O)N[C@@H](Cc1ccccc1)C(=O)NCC(=O)NCC(=O)N2 [AvBD2] (HELM PEPTIDE1{L.F.C.K.G.G.S.C.H.F.G.G.C.P.S.H.L.I.K.V.G.S.C.F.G.F.R.S.C.C.K.W.P.W.N.A}$PEPTIDE1,PEPTIDE1,3:R3-29:R3|PEPTIDE1,PEPTIDE1,8:R3-23:R3|PEPTIDE1,PEPTIDE1,13:R3-30:R3$$$V2.0)
- Hydrolysis by trypsin (trypsin [4]): did not cleave
- Hydrolysis by Cat L (Human Cat L): partially degraded
- Hydrolysis by Cat S (Human Cat S): partially degraded
- Hydrolysis by Cat B (Human Cat B): partially degraded
- MIC (μM) E. Coli ([5]; defensin alone or reaction mixture after 4 h at 30°C with cathepsin (S:E molar ratio 100), 0.1 M sodium acetate pH 5.5, 2 mM DTT, 0.01% Brij35, mean ± SEM, NI: no inhibition detected): 3 ± 2 µM
- MIC (μM) S. aureus [6]: 1 ± 0 µM
- Hydrolysis by Cat K (Human Cat K): totally digested
- Hydrolysis by Cat H (Human Cat H): resistant to hydrolysis
- Hydrolysis by chymotrypsin (chymotrypsin [7]): did not cleave
- Hydrolysis by Cat D (Human Cat D): did not cleave
- Hydrolysis by neutrophil elastase [8]: did not cleave

Compound: CC[C@H](C)[C@H](N)C(=O)N1CCC[C@H]1C(=O)N[C@@H](CCCNC(=N)N)C(=O)N1CCC[C@H]1C(=O)N[C@H](C(=O)N[C@@H](CC(=O)O)C(=O)N[C@H](C(=O)N[C@H]1CSSC[C@@H]2NC(=O)[C@H](CO)NC(=O)CNC(=O)[C@H]([C@@H](C)CC)NC(=O)CNC(=O)[C@H](CC(N)=O)NC(=O)[C@H](CC(N)=O)NC(=O)[C@@H]3CSSC[C@H](NC(=O)[C@H]([C@@H](C)CC)NC(=O)CNC(=O)[C@H](CC(N)=O)NC(=O)[C@H](CCCNC(=N)N)NC(=O)[C@H](CC(C)C)NC(=O)[C@H](CCCNC(=N)N)NC1=O)C(=O)N[C@@H](Cc1ccccc1)C(=O)N1CCC[C@H]1C(=O)NCC(=O)N[C@@H]([C@@H](C)CC)C(=O)N[C@@H](CSSC[C@@H](C(=O)N[C@@H](C)C(=O)N[C@@H](CCCNC(=N)N)C(=O)NCC(=O)N[C@@H](Cc1c[nH]c4ccccc14)C(=O)N[C@@H](CCCNC(=N)N)C(=O)N[C@@H](CO)C(=O)O)NC2=O)C(=O)N[C@@H](CCCNC(=N)N)C(=O)N[C@@H](CCCNC(=N)N)C(=O)N1CCC[C@H]1C(=O)N[C@@H](Cc1ccc(O)cc1)C(=O)N[C@@H](Cc1ccc(O)cc1)C(=O)N[C@@H](Cc1c[nH]c2ccccc12)C(=O)N[C@@H]([C@@H](C)CC)C(=O)NCC(=O)N[C@@H]([C@@H](C)O)C(=O)N3)[C@@H](C)O)[C@@H](C)CC [Ile4-AvBD7]
- MIC (μM) Escherichia coli ([5]; Table 3, mean +/- SEM): 0.5 (± 0.1) μM
- MIC (μM) Salmonella Typhimurium [9]: 1.4 (± 0.9) μM
- MIC (μM) Streptococcus salivarius [10]: 1.0 (± 0.5) μM
- MIC (μM) Listeria monocytogenes [11]: 0.2 (± 0.1) μM
- MIC (μM) Pseudomonas aeruginosa [12]: 0.2 (± 0.1) μM
